Reference: patent US9598459B2, “Pharmaceutical compositions and methods” (priority 2015, dated 2017)
Converted amounts (≈) assume the structure as drawn. “And” between values parts separate entries of the source, which are not always exact repeats. Equal entries are not always repeated. Where two headings read alike, the source gives them in different places.

Tests used:
[1] = tested on: Tacaribe TRVL11573; assay: microbe, parasite or virus in culture; type: cell-based, Tacaribe virus; conditions: Mammarenavirus tacaribeense, Vero
[2] = biological target: T1, cytosolic GRs (Homo sapiens, UniProt P04150); assay: Binding to cytosolic glucocorticoid receptors
T1 sequence (P04150 1-777): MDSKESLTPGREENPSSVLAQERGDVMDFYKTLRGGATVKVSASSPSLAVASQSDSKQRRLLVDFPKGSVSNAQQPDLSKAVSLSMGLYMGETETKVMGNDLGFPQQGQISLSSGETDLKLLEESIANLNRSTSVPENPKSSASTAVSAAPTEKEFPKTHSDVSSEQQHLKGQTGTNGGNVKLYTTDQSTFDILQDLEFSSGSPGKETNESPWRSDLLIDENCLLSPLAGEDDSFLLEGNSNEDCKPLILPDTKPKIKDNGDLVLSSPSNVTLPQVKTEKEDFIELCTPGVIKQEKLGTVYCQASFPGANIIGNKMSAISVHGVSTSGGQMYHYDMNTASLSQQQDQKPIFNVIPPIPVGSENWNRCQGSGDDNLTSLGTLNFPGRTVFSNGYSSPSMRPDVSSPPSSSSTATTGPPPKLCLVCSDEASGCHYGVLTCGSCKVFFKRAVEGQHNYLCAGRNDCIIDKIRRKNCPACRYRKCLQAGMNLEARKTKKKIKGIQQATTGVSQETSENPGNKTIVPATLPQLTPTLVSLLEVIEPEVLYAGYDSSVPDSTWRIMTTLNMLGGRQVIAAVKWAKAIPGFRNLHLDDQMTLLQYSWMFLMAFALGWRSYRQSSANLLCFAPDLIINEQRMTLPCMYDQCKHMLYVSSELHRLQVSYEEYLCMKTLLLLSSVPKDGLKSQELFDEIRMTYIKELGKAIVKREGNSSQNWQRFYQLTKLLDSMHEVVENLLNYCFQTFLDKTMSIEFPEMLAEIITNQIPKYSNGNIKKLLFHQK

[3] = Phosphatidylserine binding (thin-layer chromatographic run); conditions: PS-micelles and non-micellar PS; words
[4] = tested on: MDCK; conditions: dog
[5] = tested on: HG23; conditions: human
[6] = biological target: T1, cytosolic GRs; conditions: Peeters et al., 2008; cited from earlier work
[7] = rats, twice daily 4 mg kg−1 po; cited from earlier work
[8] = biological target: GR (Mus musculus, UniProt P06537); conditions: cited from earlier work
[9] = cited from earlier work
[10] = in vitro; conditions: African green monkey, Cytotoxicity CC50
[11] = in vitro
[12] = in vitro; conditions: African green monkey
[13] = in vitro; conditions: dog
[14] = Cytotoxicity on CCRF-CEM; conditions: human
[15] = tested on: HIV-1 LAV; assay: Inhibition of inducible HIV-1 LAV replication in OM-10.1 (RT values); type: cell-based, human immunodeficiency virus type 1; conditions: for RT Values: SAMPLE 1-3, MEAN
[16] = tested on: Japanese encepahalitis virus SA-14; assay: Japanese encephalitis virus antiviral screen in Vero 76; type: cell-based; conditions: JEV SA-14, Vero 76
[17] = tested on: West Nile virus Kern 515, WN02; assay: West Nile virus antiviral screen in Vero 76; type: cell-based
[18] = tested on: RD; assay: Cytotoxicity on RD host cells; type: cell-based
[19] = tested on: PBMC
[20] = tested on: HuH-7
[21] = tested on: MA-104
[22] = tested on: CCRF-CEM; assay: Cytotoxicity on CCRF-CEM; conditions: CCRF-CEM
[23] = tested on: OM-10.1 cells; assay: Toxicity in OM-10.1 (Cell Titer 96); conditions: for TOXICITY VALUES (Cell Titer 96): SAMPLE 1-3, MEAN
[24] = Visual (Cytopathic effect/Toxicity), unit from Conc. Range

Chain of GR (P06537 whole entry): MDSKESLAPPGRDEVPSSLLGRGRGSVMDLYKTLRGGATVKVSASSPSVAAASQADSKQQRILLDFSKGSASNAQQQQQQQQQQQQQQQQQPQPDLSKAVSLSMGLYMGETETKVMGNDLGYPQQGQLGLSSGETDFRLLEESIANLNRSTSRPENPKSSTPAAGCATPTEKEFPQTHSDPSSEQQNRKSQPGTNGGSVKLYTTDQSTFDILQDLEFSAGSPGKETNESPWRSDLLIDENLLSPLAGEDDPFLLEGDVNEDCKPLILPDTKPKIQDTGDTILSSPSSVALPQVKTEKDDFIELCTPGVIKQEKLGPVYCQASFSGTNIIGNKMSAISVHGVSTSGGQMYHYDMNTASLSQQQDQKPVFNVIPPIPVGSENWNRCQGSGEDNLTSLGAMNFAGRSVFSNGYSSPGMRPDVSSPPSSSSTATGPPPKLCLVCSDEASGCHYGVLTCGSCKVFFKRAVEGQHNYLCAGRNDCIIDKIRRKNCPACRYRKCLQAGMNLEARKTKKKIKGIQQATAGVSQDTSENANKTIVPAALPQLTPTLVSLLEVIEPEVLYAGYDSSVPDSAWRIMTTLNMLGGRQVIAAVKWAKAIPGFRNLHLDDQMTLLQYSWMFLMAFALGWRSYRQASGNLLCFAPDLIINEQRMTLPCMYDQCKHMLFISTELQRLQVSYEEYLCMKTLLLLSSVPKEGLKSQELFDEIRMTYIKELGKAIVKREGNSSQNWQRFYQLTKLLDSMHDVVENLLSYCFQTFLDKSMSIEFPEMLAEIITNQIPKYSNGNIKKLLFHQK

CC#C[C@]1(O)CC[C@H]2[C@@H]3CCC4=CC(=O)CCC4=C3[C@@H](c3ccc4c(c3)OCO4)C[C@@]21C [PT150, (11β,17β)-11-(1,3-benzodioxol-5-yl)-17-hydroxy-17-(1-propynyl)-estra-4,9-dien-3-one]
EC50 [1]: 7.2 µM and 3.1 µg/mL
selectivity ratio (GR/PR) [2]: 57
binding to PS [3]: bind to PS
CC50 [4]: 37 µg/mL (≈ 85.9 µM)
CC50 [5]: 8.7 µM
bound to cytosolic GRs, value [6]: 365%
embryos lost [7]: ~100%
block of corticosterone-induced GR translocation [8]: able to block corticosterone-induced GR translocation
adverse indications of cell toxicity ([9]; Phase II, patients, 900 mg per day for 2 weeks): no noted adverse indications of cell toxicity
significant toxicities and side effects ([9]; phase I and phase II clinical trials): none were identified
CC50 [10]: 44.3 µM
CC50 ([11]; CC50): > 100 µM
CC50 ([11]; human, CC50): 7.4 µM and 3.3 µg/mL
CC50 ([11]; human, Cytotoxicity 50% CC50): 7.4 µM
CC50 [12]: 10.9 µM
CC50 ([13]; CC50): 29 µg/mL
CC50 ([13]; Cytotoxicity 50% CC50): 17 µM
CC50 ([14]; CCRF-CEM cells (T-lymphoblastic acute T cell leukemia), Cytotoxicity CC50, CCRF-CEM): 15.4 µM
CC50 ([14]; CCRF-CEM cells, CC50, Cytotoxicity control, CCRF-CEM, CellTiter MTS): 15.4 µM

CC#CC1(O)CCC2C3CCC4=CC(=NNC(N)=S)CCC4=C3C(c3ccc4c(c3)OCO4)CC21C.CC#CC1(O)CCC2C3CCC4=CC(=O)CCC4=C3C(c3ccc4c(c3)OCO4)CC21C.CC(C)=O.CCO.O (stereo not drawn) [PT155, ⅓ (11β,17β)-17-Hydroxy-11-[3,4-(methylenedioxy)phenyl]-17-(1-propyn-1-yl)estra-4,9-dien-3-one (ORG34517)×(2EZ)-2-{(11β,17β)-17-hydroxy-11-[3,4-(methylenedioxy)phenyl]-17-(1-propyn-1-yl)estra-4,9-dien-3-ylidene}hydrazinecarbothioamide [71.8% (E), 28.2% (Z)] hemihydrate×¾% acetone× ⅛ ethanol]
% VC ([15]; 0.01 μM): 100.0%
RT Values ([15]; 0.01 μM): 32320 cpm and 29982 cpm and 29144 cpm
% VC ([15]; 0.03 μM): 107.7%
RT Values ([15]; 0.03 μM): 33018 cpm and 33056 cpm and 32387 cpm
% VC ([15]; 0.10 μM): 99.8%
RT Values ([15]; 0.10 μM): 29801 cpm and 29663 cpm and 31726 cpm
% VC ([15]; 1.00 μM): 82.2%
RT Values ([15]; 1.00 μM): 23474 cpm and 26693 cpm and 24955 cpm
% VC ([15]; 3.16 μM): 57.9%
RT Values ([15]; 3.16 μM): 16156 cpm and 21122 cpm and 15662 cpm
% VC ([15]; 10.0 μM): 28.9%
RT Values ([15]; 10.0 μM): 8592 cpm and 7827 cpm and 10011 cpm
% VC ([15]; 31.6 μM): 15.8%
RT Values ([15]; 31.6 μM): 4254 cpm and 4765 cpm and 5466 cpm
% VC ([15]; 100 μM): 0.8%
IC50 ([15]; OM-10.1): 4.33 µM
IC90 ([15]; OM-10.1): 49.4 µM
IC 95% ([15]; OM-10.1): 72.4 µM
EC50 ([15]; OM-10.1, Table 7, read-out: EC50): 4.33 µM
EC90 ([15]; OM-10.1, Table 7, read-out: EC90): 49.4 µM
EC50 ([16]; Neutral Red (Cytopathic effect/Toxicity)): 2.6 µg/mL
EC50 [16, 24]: 2.6 µg/mL
EC50 ([17]; Neutral Red): >55 µg/mL
EC50 [17, 24]: >22 µg/mL
CC50 ([18]; Enterovirus D68 screen, Neutral red): 8.1 µg/mL
CC50 ([18]; Enterovirus D68 screen, Visual): 3.2 µg/mL
CC50 ([18]; read-out: Cytotoxicity 50% CC50, Enterovirus D68 screen, Tables 5-6): 5.8 µM
binding to PS [3]: bind to PS
CC50 [19]: 82.6 µM
CC50 [20]: 39.7 µM
CC50 [21]: 17 µM
CC50 ([22]; Cytotoxicity control, CellTiter MTS): 7.1 µM
CC50 ([22]; read-out: Cytotoxicity CC50): 7.1 µM
% CC ([23]; 0.01 μM): 93.9%
TOXICITY VALUES (Cell Titer 96) ([23]; 0.01 μM): 0.707 O.D. @ 490/650 nm and 0.669 O.D. @ 490/650 nm and 0.567 O.D. @ 490/650 nm
% CC ([23]; 0.03 μM): 105.6%
TOXICITY VALUES (Cell Titer 96) ([23]; 0.03 μM): 0.749 O.D. @ 490/650 nm and 0.794 O.D. @ 490/650 nm and 0.642 O.D. @ 490/650 nm
% CC ([23]; 0.10 μM): 110.0%
TOXICITY VALUES (Cell Titer 96) ([23]; 0.10 μM): 0.867 O.D. @ 490/650 nm and 0.820 O.D. @ 490/650 nm and 0.590 O.D. @ 490/650 nm
% CC ([23]; 1.00 μM): 119.25%
TOXICITY VALUES (Cell Titer 96) ([23]; 1.00 μM): 0.937 O.D. @ 490/650 nm and 0.911 O.D. @ 490/650 nm and 0.618 O.D. @ 490/650 nm
% CC ([23]; 3.16 μM): 109.6%
TOXICITY VALUES (Cell Titer 96) ([23]; 3.16 μM): 0.896 O.D. @ 490/650 nm and 0.800 O.D. @ 490/650 nm and 0.572 O.D. @ 490/650 nm
% CC ([23]; 10.0 μM): 105.7%
TOXICITY VALUES (Cell Titer 96) ([23]; 10.0 μM): 0.828 O.D. @ 490/650 nm and 0.761 O.D. @ 490/650 nm and 0.599 O.D. @ 490/650 nm
% CC ([23]; 31.6 μM): 93.4%
TOXICITY VALUES (Cell Titer 96) ([23]; 31.6 μM): 0.714 O.D. @ 490/650 nm and 0.682 O.D. @ 490/650 nm and 0.536 O.D. @ 490/650 nm
% CC ([23]; 100 μM): 112.5%
TOXICITY VALUES (Cell Titer 96) ([23]; 100 μM): 0.777 O.D. @ 490/650 nm and 0.775 O.D. @ 490/650 nm
TC 90% ([23]; OM-10.1): >100 µM
TC 95% ([23]; OM-10.1): >100 µM
CC50 ([23]; OM-10.1, Table 7): > 100 µM
CC50 ([23]; read-out: TC 50%, OM-10.1): > 100 µM
